Here are results for six compounds from publication PMC12677699, “Utilizing Proteolytic‐Resistant Nano‐Short Peptide Based on Naphthyl Tail‐Anchored to Combat Bacterial Infections” (Advanced Science, 2025).

Converted amounts (≈) assume the structure as drawn.

Common to all, as to assay: MIC against clinical strain
Common to all, as to format: cell-based

One assay deals with P. aeruginosa 25349. The conditions noted are these: Pseudomonas aeruginosa, 25349, read-out: MIC, P. aeruginosa 25349. The protocol:
(§1) The MIC values of the nano‐short peptides were determined according to standard protocols.^[ [63] ^] Bacterial strains were revived from cryopreservation and cultured in Mueller–Hinton broth (MHB) to logarithmic growth phase, then diluted to a final density of 0.5–1 × 10⁶ CFU mL^−1. Serial dilutions of the nano‐short peptides were prepared in 0.2% bovine serum albumin (BSA) using a 96‐well plate format. Equal volumes of peptide solutions and bacterial suspensions were combined and incubated at 37 °C for 20–22 h. Bacterial growth was assessed by measuring absorbance at 492 nm, with MHB alone (negative control) and untreated bacterial suspension (positive control) included for reference.

For another assay, the system named is A. baumannii AB1901. The conditions noted are these: Acinetobacter baumannii, AB1901, read-out: MIC, A. baumannii AB1901. The method, then:
as §1

Another assay has as its system A. baumannii AB1902. To be noted: Acinetobacter baumannii, AB1902, read-out: MIC, A. baumannii AB1902. The method, then: as §1
The test system of another assay is S. aureus 11011. To be noted: Staphylococcus aureus, 11011, read-out: MIC, S. aureus 11011. The protocol: as §1

Usually MIC stands for the smallest concentration in the dilution series that meets the test's criterion for growth inhibition. `CC(C)(O/N=C(\C(=O)N[C@@H]1C(=O)N2C(C(=O)[O-])=C(C[n+]3ccccc3)CS[C@H]12)c1csc(N)n1)C(=O)O` [Ceftazidime]: the MIC in the assay with P. aeruginosa 25349 is 32 µM (≈ 17.5 µg/mL); with A. baumannii AB1901 it was 8 µM (≈ 4.37 µg/mL); in the assay on A. baumannii AB1902, 128 µM (≈ 70 µg/mL); in the assay with S. aureus 11011, 128 µM (≈ 70 µg/mL).
Turning to `CC[C@H]1OC(=O)[C@H](C)[C@@H](O[C@H]2C[C@@](C)(OC)[C@@H](O)[C@H](C)O2)[C@H](C)[C@@H](O[C@@H]2O[C@H](C)C[C@H](N(C)C)[C@H]2O)[C@](C)(O)C[C@@H](C)C(=O)[C@H](C)[C@@H](O)[C@]1(C)O` [Erythromycin], the MIC in the assay with P. aeruginosa 25349 amounted to 128 µM (≈ 93.9 µg/mL); in the assay with A. baumannii AB1901 it was 64 µM (≈ 47 µg/mL); in the assay with A. baumannii AB1902 it was 128 µM (≈ 93.9 µg/mL); in the assay with S. aureus 11011, 128 µM (≈ 93.9 µg/mL).
On to `NC[C@H]1O[C@H](O[C@H]2[C@H](O)[C@@H](O[C@H]3O[C@H](CO)[C@@H](O)[C@H](N)[C@H]3O)[C@H](N)C[C@@H]2N)[C@H](O)[C@@H](O)[C@@H]1O` [Kanamycin], for which the MIC with P. aeruginosa 25349, in the assay with A. baumannii AB1901, with A. baumannii AB1902 and in the assay with S. aureus 11011 was 128 µM (≈ 62 µg/mL) in each case.
For `CC1COc2c(N3CCN(C)CC3)c(F)cc3c(=O)c(C(=O)O)cn1c23` (stereo not drawn) [Ofloxacin], the MIC in the assay on P. aeruginosa 25349 came to 2 µM (≈ 0.723 µg/mL); in the assay on A. baumannii AB1901 it was 1 µM (≈ 0.361 µg/mL); with A. baumannii AB1902 it was 128 µM (≈ 46.3 µg/mL); in the assay with S. aureus 11011, 128 µM (≈ 46.3 µg/mL).
Regarding `CC1(C)S[C@@H]2[C@H](NC(=O)Cc3ccccc3)C(=O)N2[C@H]1C(=O)O` [Penicillin sodium], the MIC in the assay on P. aeruginosa 25349, in the assay on A. baumannii AB1901, in the assay on A. baumannii AB1902 and in the assay on S. aureus 11011 was 128 µM each time.
Regarding `CN[C@H](CC(C)C)C(=O)N[C@H]1C(=O)N[C@@H](CC(N)=O)C(=O)N[C@H]2C(=O)N[C@H]3C(=O)N[C@H](C(=O)N[C@H](C(=O)O)c4cc(O)cc(O)c4-c4cc3ccc4O)[C@H](O)c3ccc(c(Cl)c3)Oc3cc2cc(c3O[C@@H]2O[C@H](CO)[C@@H](O)[C@H](O)[C@H]2O[C@H]2C[C@](C)(N)[C@H](O)[C@H](C)O2)Oc2ccc(cc2Cl)[C@H]1O` [Vancomycin], the MIC with P. aeruginosa 25349 is 128 µM (≈ 186 µg/mL); in the assay with A. baumannii AB1901, 1 µM (≈ 1.45 µg/mL); with A. baumannii AB1902 it was 128 µM (≈ 186 µg/mL); with S. aureus 11011, 128 µM (≈ 186 µg/mL).
